The data set is described as follows: recombinant UMI read abundance after kanamycin selection (control-corrected) (log10(CPM+1)); higher = more efficient recombination; extreme values may be limits of the assay; sequences stand for … in AGTGCAGAGAAAATCGGCCAGTTTTCTCTGCCTGCAGTCCGCATGCCGTGGGACCCCTTGGGTTCTAACCTGTTGCCTAGATTTATGCAGCGGACTGCCTTTCTCCCAAAGTGATAAACCGG…AGGTTGGTTTCACT; site = the 11-nt donor. The essentials:
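Reported values are log10(CPM+1) from a pooled Escherichia coli screen of donor and donor-binding-loop pairs for the IS621 bridge recombinase. Selection used IPTG (0.07 mM) plus kanamycin, against unselected plating, each in two replicates. Recombinant UMIs were amplified across the donor–target junction, sequenced, converted to CPM, averaged over replicates and scaled by control-derived factors.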
With “GTGGGGGCATGGACCGGTTTTCCCGGTAATCCGTATTTGTG (site GTGGTGGCTCA)”, the “recombinant UMI read abundance (log10)” value came out at 0.0315. The same measure for “GTGGGTTCATGGACCGGTTTTCCCGGTAATCCGTATTTGCA (site GTGGGTTCTTG)”: 2.55; for “GTGGTTCCATGGACCGGTTTTCCCGGTAATCCGTATTTGGT (site GTAGTTCCTAC)”: 0.553.

“GTGGTTCCATGGACCGGTTTTCCCGGTAATCCGTATTTGGT (site GTCGTTCCTAC)”: the “recombinant UMI read abundance (log10)” value was found to be 0. Under “GTGGTTCCATGGACCGGTTTTCCCGGTAATCCGTATTTGGT (site GTGGTTCCTAC)” stands 0.0114; under “GTGGTTCCATGGACCGGTTTTCCCGGTAATCCGTATTTGGT (site GTTGTTCCTAC)”, 0.0137; under “GTGTATGCATGGACCGGTTTTCCCGGTAATCCGTATTTGGT (site GTGAATGCTAC)”, 0.483. As to “GTGTATGCATGGACCGGTTTTCCCGGTAATCCGTATTTGGT (site GTGCATGCTAC)”, the “recombinant UMI read abundance (log10)” value was found to be 1.24.

On to “GTGTATGCATGGACCGGTTTTCCCGGTAATCCGTATTTGGT (site GTGGATGCTAC)”, for which the “recombinant UMI read abundance (log10)” value was 0. Under “GTGTATGCATGGACCGGTTTTCCCGGTAATCCGTATTTGGT (site GTGTATGCTAC)” stands 2. “GTGTCATCATGGACCGGTTTTCCCGGTAATCCGTATTTGCA (site GTGTCATCTTG)”: the “recombinant UMI read abundance (log10)” value worked out at 0.804. For “GTGTTGCCATGGACCGGTTTTCCCGGTAATCCGTATTTGGC (site GTGTTGCCTGC)”, the “recombinant UMI read abundance (log10)” value came to 0.

Take “GTGTTTACATGGACCGGTTTTCCCGGTAATCCGTATTTGCG (site GTGTTTACTCG)”: the “recombinant UMI read abundance (log10)” value amounted to 1.66. Turning to “GTTAACTCATGGACCGGTTTTCCCGGTAATCCGTATTTGAA (site GTTAACTCTTT)”, the “recombinant UMI read abundance (log10)” value is 1.85. “GTTAAGGCATGGACCGGTTTTCCCGGTAATCCGTATTTGAG (site GTTAAGGCTCT)”: the “recombinant UMI read abundance (log10)” value was determined as 1.41. In the case of “GTTACAACATGGACCGGTTTTCCCGGTAATCCGTATTTGGC (site GTTAAAACTGC)”, the “recombinant UMI read abundance (log10)” value came out at 0.0108. “GTTACAACATGGACCGGTTTTCCCGGTAATCCGTATTTGGC (site GTTACAACTGC)”: the “recombinant UMI read abundance (log10)” value stood at 0. Take “GTTACAACATGGACCGGTTTTCCCGGTAATCCGTATTTGGC (site GTTAGAACTGC)”: the “recombinant UMI read abundance (log10)” value was 0. In the case of “GTTACAACATGGACCGGTTTTCCCGGTAATCCGTATTTGGC (site GTTATAACTGC)”, the “recombinant UMI read abundance (log10)” value amounted to 0. For the sequence “GTTACGTCATGGACCGGTTTTCCCGGTAATCCGTATTTGTA (site GTTACGTCTTA)”, the “recombinant UMI read abundance (log10)” value was 1.22.

Turning to “GTTACTGCATGGACCGGTTTTCCCGGTAATCCGTATTTGCC (site GATACTGCTGG)”, the “recombinant UMI read abundance (log10)” value was 0. For “GTTACTGCATGGACCGGTTTTCCCGGTAATCCGTATTTGCC (site GCTACTGCTGG)”, the “recombinant UMI read abundance (log10)” value turned out to be 0.

Consider “GTTACTGCATGGACCGGTTTTCCCGGTAATCCGTATTTGCC (site GGTACTGCTGG)”, for which the “recombinant UMI read abundance (log10)” value was 0.914.

For the sequence “GTTACTGCATGGACCGGTTTTCCCGGTAATCCGTATTTGCC (site GTTACTGCTGG)”, the “recombinant UMI read abundance (log10)” value worked out at 1.83. As for “GTTAGCTCATGGACCGGTTTTCCCGGTAATCCGTATTTGTG (site GTTAGCTCTCA)”, the “recombinant UMI read abundance (log10)” value turned out to be 0.415.

Turning to “GTTAGTACATGGACCGGTTTTCCCGGTAATCCGTATTTGGC (site GTTAGAACTGC)”, the “recombinant UMI read abundance (log10)” value was determined as 0. Regarding “GTTAGTACATGGACCGGTTTTCCCGGTAATCCGTATTTGGC (site GTTAGCACTGC)”, the “recombinant UMI read abundance (log10)” value turned out to be 0.

Turning to “GTTAGTACATGGACCGGTTTTCCCGGTAATCCGTATTTGGC (site GTTAGGACTGC)”, the “recombinant UMI read abundance (log10)” value stood at 0. Regarding “GTTAGTACATGGACCGGTTTTCCCGGTAATCCGTATTTGGC (site GTTAGTACTGC)”, the “recombinant UMI read abundance (log10)” value worked out at 0.861. “GTTATACCATGGACCGGTTTTCCCGGTAATCCGTATTTGCT (site GTTATACCTAG)”: the “recombinant UMI read abundance (log10)” value amounted to 0. With “GTTATAGCATGGACCGGTTTTCCCGGTAATCCGTATTTGTC (site GTTATAGCTGA)”, the “recombinant UMI read abundance (log10)” value was found to be 2.53.

Regarding “GTTCCAACATGGACCGGTTTTCCCGGTAATCCGTATTTGTA (site GATCCAACTTA)”, the “recombinant UMI read abundance (log10)” value was 0.0199. As to “GTTCCAACATGGACCGGTTTTCCCGGTAATCCGTATTTGTA (site GCTCCAACTTA)”, the “recombinant UMI read abundance (log10)” value amounted to 0.287. Under “GTTCCAACATGGACCGGTTTTCCCGGTAATCCGTATTTGTA (site GGTCCAACTTA)” stands 0.0991; under “GTTCCAACATGGACCGGTTTTCCCGGTAATCCGTATTTGTA (site GTTCCAACTTA)”, 0.437; under “GTTCCTACATGGACCGGTTTTCCCGGTAATCCGTATTTGCT (site GTTCCTACTAG)”, 0.774. Regarding “GTTCGAACATGGACCGGTTTTCCCGGTAATCCGTATTTGGC (site GTTAGAACTGC)”, the “recombinant UMI read abundance (log10)” value was determined as 0.

Turning to “GTTCGAACATGGACCGGTTTTCCCGGTAATCCGTATTTGGC (site GTTCGAACTGC)”, the “recombinant UMI read abundance (log10)” value was 0.869. In the case of “GTTCGAACATGGACCGGTTTTCCCGGTAATCCGTATTTGGC (site GTTGGAACTGC)”, the “recombinant UMI read abundance (log10)” value is 0. Regarding “GTTCGAACATGGACCGGTTTTCCCGGTAATCCGTATTTGGC (site GTTTGAACTGC)”, the “recombinant UMI read abundance (log10)” value was 0. Consider “GTTCGACCATGGACCGGTTTTCCCGGTAATCCGTATTTGTG (site GTTCGACCTCA)”, for which the “recombinant UMI read abundance (log10)” value was found to be 0.0309. Take “GTTCGAGCATGGACCGGTTTTCCCGGTAATCCGTATTTGCA (site ATTCGAGCTTG)”: the “recombinant UMI read abundance (log10)” value amounted to 1.31. In the case of “GTTCGAGCATGGACCGGTTTTCCCGGTAATCCGTATTTGCA (site CTTCGAGCTTG)”, the “recombinant UMI read abundance (log10)” value was 0.898. Under “GTTCGAGCATGGACCGGTTTTCCCGGTAATCCGTATTTGCA (site GATCGAGCTTG)” stands 0.258; under “GTTCGAGCATGGACCGGTTTTCCCGGTAATCCGTATTTGCA (site GCTCGAGCTTG)”, 1.25; under “GTTCGAGCATGGACCGGTTTTCCCGGTAATCCGTATTTGCA (site GGTCGAGCTTG)”, 0.00484.

Take “GTTCGAGCATGGACCGGTTTTCCCGGTAATCCGTATTTGCA (site GTACGAGCTTG)”: the “recombinant UMI read abundance (log10)” value turned out to be 1.97. The same measure for “GTTCGAGCATGGACCGGTTTTCCCGGTAATCCGTATTTGCA (site GTCCGAGCTTG)”: 1.29.

Regarding “GTTCGAGCATGGACCGGTTTTCCCGGTAATCCGTATTTGCA (site GTGCGAGCTTG)”, the “recombinant UMI read abundance (log10)” value is 0.215.

For the sequence “GTTCGAGCATGGACCGGTTTTCCCGGTAATCCGTATTTGCA (site GTTAGAGCTTG)”, the “recombinant UMI read abundance (log10)” value was found to be 0.651. In the case of “GTTCGAGCATGGACCGGTTTTCCCGGTAATCCGTATTTGCA (site GTTCAAGCTTG)”, the “recombinant UMI read abundance (log10)” value came to 1.8. As for “GTTCGAGCATGGACCGGTTTTCCCGGTAATCCGTATTTGCA (site GTTCCAGCTTG)”, the “recombinant UMI read abundance (log10)” value came to 0.541. Turning to “GTTCGAGCATGGACCGGTTTTCCCGGTAATCCGTATTTGCA (site GTTCGAACTTG)”, the “recombinant UMI read abundance (log10)” value came out at 0.806. On to “GTTCGAGCATGGACCGGTTTTCCCGGTAATCCGTATTTGCA (site GTTCGACCTTG)”, for which the “recombinant UMI read abundance (log10)” value stood at 0.0101. For “GTTCGAGCATGGACCGGTTTTCCCGGTAATCCGTATTTGCA (site GTTCGAGCTAG)”, the “recombinant UMI read abundance (log10)” value worked out at 0.

For “GTTCGAGCATGGACCGGTTTTCCCGGTAATCCGTATTTGCA (site GTTCGAGCTCG)”, the “recombinant UMI read abundance (log10)” value was found to be 0.461. Under “GTTCGAGCATGGACCGGTTTTCCCGGTAATCCGTATTTGCA (site GTTCGAGCTGG)” stands 0.789; under “GTTCGAGCATGGACCGGTTTTCCCGGTAATCCGTATTTGCA (site GTTCGAGCTTA)”, 1.19; under “GTTCGAGCATGGACCGGTTTTCCCGGTAATCCGTATTTGCA (site GTTCGAGCTTC)”, 0.0558.

Regarding “GTTCGAGCATGGACCGGTTTTCCCGGTAATCCGTATTTGCA (site GTTCGAGCTTG)”, the “recombinant UMI read abundance (log10)” value was determined as 2.44.

For “GTTCGAGCATGGACCGGTTTTCCCGGTAATCCGTATTTGCA (site GTTCGAGCTTT)”, the “recombinant UMI read abundance (log10)” value was found to be 0.391. “GTTCGAGCATGGACCGGTTTTCCCGGTAATCCGTATTTGCA (site GTTCGATCTTG)”: the “recombinant UMI read abundance (log10)” value was determined as 1.09. Take “GTTCGAGCATGGACCGGTTTTCCCGGTAATCCGTATTTGCA (site GTTCGCGCTTG)”: the “recombinant UMI read abundance (log10)” value amounted to 0.00631. With “GTTCGAGCATGGACCGGTTTTCCCGGTAATCCGTATTTGCA (site GTTCGGGCTTG)”, the “recombinant UMI read abundance (log10)” value is 1. With “GTTCGAGCATGGACCGGTTTTCCCGGTAATCCGTATTTGCA (site GTTCGTGCTTG)”, the “recombinant UMI read abundance (log10)” value turned out to be 0.477. Turning to “GTTCGAGCATGGACCGGTTTTCCCGGTAATCCGTATTTGCA (site GTTCTAGCTTG)”, the “recombinant UMI read abundance (log10)” value was determined as 0.494. Turning to “GTTCGAGCATGGACCGGTTTTCCCGGTAATCCGTATTTGCA (site GTTGGAGCTTG)”, the “recombinant UMI read abundance (log10)” value was determined as 0.345. As for “GTTCGAGCATGGACCGGTTTTCCCGGTAATCCGTATTTGCA (site GTTTGAGCTTG)”, the “recombinant UMI read abundance (log10)” value is 0.607.

For the origin of these results see the supplement of paper PMC11208160.
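Also: IS621 bridge recombinase in Escherichia coli cells against a fixed T5 target plasmid.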
